Patent publication US6689773B2, “Uracil substituted phenyl sulfamoyl carboxamides” (BASF Aktiengesellschaft, priority 2000, dated 2004)

Experiments:
Assay type in all cases: in vivo
[1] = tested on: ZEAMX, Field corn, Zea mays L.; assay: Postemergence herbicidal evaluation (Example 147); conditions: rating scale 0-9, two to three weeks after treatment
Protocol: (§1) Seedling plants were grown in jiffy flats for about two weeks. The test compounds were dispersed in 80/20 acetone/water mixtures containing 1.0% SUN-IT®II, a methylated seed oil, in sufficient quantities to provide the equivalent of about 0.016 to 0.032 kg per hectare of active compound when applied to the plants through a spray nozzle operating at 40 psi for a predetermined time. After spraying, the plants were placed on greenhouse benches and were cared for in accordance with conventional greenhouse procedures. Approximately two to three weeks after treatment, the seedling plants were examined and rated according to the rating scale (0-9) set forth below. Where more than one test is involved for a given compound, the data are averaged. [table] The scale is based upon a visual observation of plant stand, vigor, malformation, size, chlorosis and overall plant appearance as compared with a control. Plant species employed in these evaluations are reported by header abbreviation, common name and scientific name. [table]

[2] = tested on: IPOHE, Morningglory, Ivyleaf, Ipomoea hederacea, (L)Jacq.; assay: Postemergence herbicidal evaluation (Example 147); conditions: rating scale 0-9, two to three weeks after treatment
Protocol: as §1

[3] = tested on: AMBEL, Ragweed, Common, Ambrosia artemiisifolia, L.; assay: Postemergence herbicidal evaluation (Example 147); conditions: rating scale 0-9, two to three weeks after treatment
Protocol: as §1

[4] = tested on: ALOMY, Blackgrass, Alopecurus myosuroides; assay: Postemergence herbicidal evaluation (Example 147); conditions: rating scale 0-9, two to three weeks after treatment
Protocol: as §1

[5] = tested on: CHEAL, Lambsquarters, Chenopodium album, L. Common; assay: Postemergence herbicidal evaluation (Example 147); conditions: rating scale 0-9, two to three weeks after treatment
Protocol: as §1

[6] = tested on: DIGSA, Crabgrass, (Hairy) L, Digitaria sanguinalis, (L)Scop; assay: Postemergence herbicidal evaluation (Example 147); conditions: rating scale 0-9, two to three weeks after treatment
Protocol: as §1

[7] = tested on: ECHCG, Barnyardgrass, Echinochloa crusgalli, (L.)Beau; assay: Postemergence herbicidal evaluation (Example 147); conditions: rating scale 0-9, two to three weeks after treatment
Protocol: as §1

[8] = tested on: TRZAW, Winter wheat, Tritium Aestivum, L. (Winter); assay: Postemergence herbicidal evaluation (Example 147); conditions: rating scale 0-9, two to three weeks after treatment
Protocol: as §1

[9] = tested on: SETVI, Green foxtail, Setaria viridis, (L.)Beau; assay: Postemergence herbicidal evaluation (Example 147); conditions: rating scale 0-9, two to three weeks after treatment
Protocol: as §1

[10] = tested on: ABUTH, Velvetleaf, Abutilon theophrasti, Medic.; assay: Postemergence herbicidal evaluation (Example 147); conditions: rating scale 0-9, two to three weeks after treatment
Protocol: as §1

[11] = tested on: GLXMA, Soybean, Glycine max, (L.) Merr.; assay: Postemergence herbicidal evaluation (Example 147); conditions: rating scale 0-9, two to three weeks after treatment
Protocol: as §1

[12] = tested on: ZEAMX, Field corn, Zea mays L.; assay: Preemergence herbicidal evaluation (Example 148); conditions: rating scale 0-9, two to four weeks after treatment
Protocol: (§2) The scale is based upon a visual observation of plant stand, vigor, malformation, size, chlorosis and overall plant appearance as compared with a control.
(§3) The herbicidal activity of the compounds of the present invention was evaluated by the following tests wherein the seeds of a variety of monocotyledonous and dicotyledonous plants were separately mixed with potting soil and planted on top of approximately one inch of soil in separate pint cups. After planting, the cups were sprayed with the selected aqueous acetone solution containing test compound in sufficient quantity to provide the equivalent of about 0.125 to 0.250 kg per hectare of test compound per cup. The treated cups were then placed on greenhouse benches, watered and cared for in accordance with conventional greenhouse procedures. From two to four weeks after treatment, the tests were terminated and each cup was examined and rated according to the rating system provided in Example 94. When more than one test was performed for a given compound, the data were averaged.

[13] = tested on: IPOHE, Morningglory, Ivyleaf, Ipomoea hederacea, (L)Jacq.; assay: Preemergence herbicidal evaluation (Example 148); conditions: rating scale 0-9, two to four weeks after treatment
Protocol: as §2, §3

[14] = tested on: AMBEL, Ragweed, Common, Ambrosia artemiisifolia, L.; assay: Preemergence herbicidal evaluation (Example 148); conditions: rating scale 0-9, two to four weeks after treatment
Protocol: as §2, §3

[15] = tested on: ALOMY, Blackgrass, Alopecurus myosuroides; assay: Preemergence herbicidal evaluation (Example 148); conditions: rating scale 0-9, two to four weeks after treatment
Protocol: as §2, §3

[16] = tested on: CHEAL, Lambsquarters, Chenopodium album, L. Common; assay: Preemergence herbicidal evaluation (Example 148); conditions: rating scale 0-9, two to four weeks after treatment
Protocol: as §2, §3

[17] = tested on: DIGSA, Crabgrass, (Hairy) L, Digitaria sanguinalis, (L)Scop; assay: Preemergence herbicidal evaluation (Example 148); conditions: rating scale 0-9, two to four weeks after treatment
Protocol: as §2, §3

[18] = tested on: ECHCG, Barnyardgrass, Echinochloa crusgalli, (L.)Beau; assay: Preemergence herbicidal evaluation (Example 148); conditions: rating scale 0-9, two to four weeks after treatment
Protocol: as §2, §3

[19] = tested on: TRZAW, Winter wheat, Tritium Aestivum, L. (Winter); assay: Preemergence herbicidal evaluation (Example 148); conditions: rating scale 0-9, two to four weeks after treatment
Protocol: as §2, §3

[20] = tested on: SETVI, Green foxtail, Setaria viridis, (L.)Beau; assay: Preemergence herbicidal evaluation (Example 148); conditions: rating scale 0-9, two to four weeks after treatment
Protocol: as §2, §3

[21] = tested on: ABUTH, Velvetleaf, Abutilon theophrasti, Medic.; assay: Preemergence herbicidal evaluation (Example 148); conditions: rating scale 0-9, two to four weeks after treatment
Protocol: as §2, §3

[22] = tested on: XANST, Cocklebur, Xanthium strumariam; assay: Preemergence herbicidal evaluation (Example 148); conditions: rating scale 0-9, two to four weeks after treatment
Protocol: as §2, §3

[23] = tested on: GLXMA, Soybean, Glycine max, (L.) Merr.; assay: Preemergence herbicidal evaluation (Example 148); conditions: rating scale 0-9, two to four weeks after treatment
Protocol: as §2, §3

CC(C)CCNS(=O)(=O)NC(=O)c1cc(-n2c(=O)cc(C(F)(F)F)n(C)c2=O)c(F)cc1Cl [Example 72]
Postemergence herbicidal rating ZEAMX ([1]; rate 0.016 kg/ha): 7.0 | Postemergence herbicidal rating ZEAMX ([1]; rate 0.032 kg/ha): 7.0 | Postemergence herbicidal rating IPOHE ([2]; rate 0.016 kg/ha): 9.0 | Postemergence herbicidal rating IPOHE ([2]; rate 0.032 kg/ha): 9.0 | Postemergence herbicidal rating AMBEL ([3]; rate 0.016 kg/ha): 9.0 | Postemergence herbicidal rating AMBEL ([3]; rate 0.032 kg/ha): 9.0 | Postemergence herbicidal rating ALMOY ([4]; rate 0.016 kg/ha): 1.0 | Postemergence herbicidal rating ALMOY ([4]; rate 0.032 kg/ha): 2.0 | Postemergence herbicidal rating CHEAL ([5]; rate 0.016 kg/ha): 8.0 | Postemergence herbicidal rating CHEAL ([5]; rate 0.032 kg/ha): 8.0 | Postemergence herbicidal rating DIGSA ([6]; rate 0.016 kg/ha): 4.0 | Postemergence herbicidal rating DIGSA ([6]; rate 0.032 kg/ha): 4.0 | Postemergence herbicidal rating ECHCG ([7]; rate 0.016 kg/ha): 6.0 | Postemergence herbicidal rating ECHCG ([7]; rate 0.032 kg/ha): 8.0 | Postemergence herbicidal rating TRZAW ([8]; rate 0.016 kg/ha): 5.5 | Postemergence herbicidal rating TRZAW ([8]; rate 0.032 kg/ha): 6.5 | Postemergence herbicidal rating SETVI ([9]; rate 0.016 kg/ha): 5.0 | Postemergence herbicidal rating SETVI ([9]; rate 0.032 kg/ha): 6.0 | Postemergence herbicidal rating ABUTH ([10]; rate 0.016 kg/ha): 9.0 | Postemergence herbicidal rating ABUTH ([10]; rate 0.032 kg/ha): 9.0 | Postemergence herbicidal rating GLXMA ([11]; rate 0.016 kg/ha): 8.5 | Postemergence herbicidal rating GLXMA ([11]; rate 0.032 kg/ha): 8.5 | Preemergence herbicidal rating ZEAMX ([12]; rate 0.125 kg/ha): 0.0 | Preemergence herbicidal rating ZEAMX ([12]; rate 0.25 kg/ha): 0.0 | Preemergence herbicidal rating IPOHE ([13]; rate 0.125 kg/ha): 9.0 | Preemergence herbicidal rating IPOHE ([13]; rate 0.25 kg/ha): 9.0 | Preemergence herbicidal rating AMBEL ([14]; rate 0.125 kg/ha): 9.0 | Preemergence herbicidal rating AMBEL ([14]; rate 0.25 kg/ha): 9.0 | Preemergence herbicidal rating ALMOY ([15]; rate 0.125 kg/ha): 1.0 | Preemergence herbicidal rating ALMOY ([15]; rate 0.25 kg/ha): 2.0 | Preemergence herbicidal rating CHEAL ([16]; rate 0.125 kg/ha): 9.0 | Preemergence herbicidal rating CHEAL ([16]; rate 0.25 kg/ha): 9.0 | Preemergence herbicidal rating DIGSA ([17]; rate 0.125 kg/ha): 2.0 | Preemergence herbicidal rating DIGSA ([17]; rate 0.25 kg/ha): 7.0 | Preemergence herbicidal rating ECHCG ([18]; rate 0.125 kg/ha): 7.0 | Preemergence herbicidal rating ECHCG ([18]; rate 0.25 kg/ha): 6.0 | Preemergence herbicidal rating TRZAW ([19]; rate 0.125 kg/ha): 0.0 | Preemergence herbicidal rating TRZAW ([19]; rate 0.25 kg/ha): 1.0 | Preemergence herbicidal rating SETVI ([20]; rate 0.125 kg/ha): 4.0 | Preemergence herbicidal rating SETVI ([20]; rate 0.25 kg/ha): 8.0 | Preemergence herbicidal rating ABUTH ([21]; rate 0.125 kg/ha): 9.0 | Preemergence herbicidal rating ABUTH ([21]; rate 0.25 kg/ha): 9.0 | Preemergence herbicidal rating XANST ([22]; rate 0.125 kg/ha): 7.0 | Preemergence herbicidal rating XANST ([22]; rate 0.25 kg/ha): 9.0 | Preemergence herbicidal rating GLXMA ([23]; rate 0.125 kg/ha): 8.0 | Preemergence herbicidal rating GLXMA ([23]; rate 0.25 kg/ha): 9.0

CN(c1ccccc1)S(=O)(=O)NC(=O)c1cc(-n2c(=O)cc(C(F)(F)F)n(C)c2=O)c(F)cc1Cl [Example 73]
Postemergence herbicidal rating ZEAMX ([1]; rate 0.016 kg/ha): 7.0 | Postemergence herbicidal rating ZEAMX ([1]; rate 0.032 kg/ha): 7.5 | Postemergence herbicidal rating IPOHE ([2]; rate 0.016 kg/ha): 9.0 | Postemergence herbicidal rating IPOHE ([2]; rate 0.032 kg/ha): 9.0 | Postemergence herbicidal rating AMBEL ([3]; rate 0.016 kg/ha): 9.0 | Postemergence herbicidal rating AMBEL ([3]; rate 0.032 kg/ha): 9.0 | Postemergence herbicidal rating ALMOY ([4]; rate 0.016 kg/ha): 2.0 | Postemergence herbicidal rating ALMOY ([4]; rate 0.032 kg/ha): 3.0 | Postemergence herbicidal rating CHEAL ([5]; rate 0.016 kg/ha): 8.0 | Postemergence herbicidal rating CHEAL ([5]; rate 0.032 kg/ha): 9.0 | Postemergence herbicidal rating DIGSA ([6]; rate 0.016 kg/ha): 4.0 | Postemergence herbicidal rating DIGSA ([6]; rate 0.032 kg/ha): 6.0 | Postemergence herbicidal rating ECHCG ([7]; rate 0.016 kg/ha): 4.0 | Postemergence herbicidal rating ECHCG ([7]; rate 0.032 kg/ha): 7.0 | Postemergence herbicidal rating TRZAW ([8]; rate 0.016 kg/ha): 5.5 | Postemergence herbicidal rating TRZAW ([8]; rate 0.032 kg/ha): 6.5 | Postemergence herbicidal rating SETVI ([9]; rate 0.016 kg/ha): 4.0 | Postemergence herbicidal rating SETVI ([9]; rate 0.032 kg/ha): 5.0 | Postemergence herbicidal rating ABUTH ([10]; rate 0.016 kg/ha): 9.0 | Postemergence herbicidal rating ABUTH ([10]; rate 0.032 kg/ha): 9.0 | Postemergence herbicidal rating GLXMA ([11]; rate 0.016 kg/ha): 8.5 | Postemergence herbicidal rating GLXMA ([11]; rate 0.032 kg/ha): 8.5 | Preemergence herbicidal rating ZEAMX ([12]; rate 0.125 kg/ha): 0.0 | Preemergence herbicidal rating ZEAMX ([12]; rate 0.25 kg/ha): 0.0 | Preemergence herbicidal rating IPOHE ([13]; rate 0.125 kg/ha): 9.0 | Preemergence herbicidal rating IPOHE ([13]; rate 0.25 kg/ha): 9.0 | Preemergence herbicidal rating AMBEL ([14]; rate 0.125 kg/ha): 9.0 | Preemergence herbicidal rating AMBEL ([14]; rate 0.25 kg/ha): 9.0 | Preemergence herbicidal rating ALMOY ([15]; rate 0.125 kg/ha): 0.0 | Preemergence herbicidal rating ALMOY ([15]; rate 0.25 kg/ha): 0.0 | Preemergence herbicidal rating CHEAL ([16]; rate 0.125 kg/ha): 9.0 | Preemergence herbicidal rating CHEAL ([16]; rate 0.25 kg/ha): 9.0 | Preemergence herbicidal rating DIGSA ([17]; rate 0.125 kg/ha): 3.0 | Preemergence herbicidal rating DIGSA ([17]; rate 0.25 kg/ha): 3.0 | Preemergence herbicidal rating ECHCG ([18]; rate 0.125 kg/ha): 0.0 | Preemergence herbicidal rating ECHCG ([18]; rate 0.25 kg/ha): 3.0 | Preemergence herbicidal rating TRZAW ([19]; rate 0.125 kg/ha): 0.0 | Preemergence herbicidal rating TRZAW ([19]; rate 0.25 kg/ha): 0.0 | Preemergence herbicidal rating SETVI ([20]; rate 0.125 kg/ha): 2.0 | Preemergence herbicidal rating SETVI ([20]; rate 0.25 kg/ha): 5.0 | Preemergence herbicidal rating ABUTH ([21]; rate 0.125 kg/ha): 9.0 | Preemergence herbicidal rating ABUTH ([21]; rate 0.25 kg/ha): 9.0 | Preemergence herbicidal rating XANST ([22]; rate 0.125 kg/ha): 3.0 | Preemergence herbicidal rating XANST ([22]; rate 0.25 kg/ha): 9.0 | Preemergence herbicidal rating GLXMA ([23]; rate 0.125 kg/ha): 0.0 | Preemergence herbicidal rating GLXMA ([23]; rate 0.25 kg/ha): 0.0
